What all share (assay): NCI anticancer screen, dose series, 48 h
Assay [1] has as its system UACC-257 melanoma.
In assay [2] the test system is BT-549 breast.
Assay [3] concerns CAKI-1 renal.
The test system of assay [4] is OVCAR-5 ovarian.
The test system of assay [5] is OVCAR-3 ovarian.
Assay [6] deals with SK-MEL-2 melanoma.
Assay [7] has as its system NCI-H226 lung.
Assay [8] has as its system M14 melanoma.
In assay [9] the test system is SK-MEL-28 melanoma.
Assay [10] has as its system UACC-62 melanoma.
In assay [11] the test system is NCI-H23 lung.
Assay [12] deals with COLO 205 colon.
The test system of assay [13] is NCI-H460 lung.
For assay [14], the system named is SF-539 CNS.

Results on 21 compounds are retold here after PubChem BioAssay (NCI).

Each structure is given as a SMILES string.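 Results reflect a 48-hour exposure of cells in 96-well plates to compound at five concentrations. Here, GI50 denotes the concentration required for 50% inhibition of growth. TGI: total growth inhibition.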 *1 amine or outer side, *2 acyl side, *3 side chain or, on linkers, in order; H or OH if unused. Where a SMILES comes first, the peptide text is derived from it. Bridges are numbered along the chain shown (N, C = ends). [ ]: non-standard residue; d: D form. The star is where a group is joined. ξ: configuration not given here. X35 = CC[C@H](C)[C@@H](N[*:1])[C@@H](O)CC(=O)O[C@H](C(=O)[C@H](C)C(=O)[*:2])C(C)C; NMeY = CN[C@@H](Cc1ccc(O)cc1)C(=O)O; ξNMeF = CNC(Cc1ccccc1)C(=O)O; NMeV = CN[C@H](C(=O)O)C(C)C; Boc = CC(C)(C)OC(=O)*; OBn = c1ccc(CO*)cc1 A value given as a limit tells only on which side of the number the result lay.

In the case of `CCOC(=O)[C@@H]1[C@@H](c2ccccc2)N(C)O[C@@]1(c1ccccc1)C(F)(F)F`, the TGI in [1], in [2], in assay [3], in [4], in [5] and in assay [6] was > 100 µM in each case. Further, the TGI in [7], in [8], in assay [9], in [10], in [11] and in assay [12] was > 100 µM throughout.
On to `O=C(Sc1c(-c2ccccc2)c(=O)n(-c2ccccc2)c(=S)n1-c1ccccc1)c1ccccc1`, for which the TGI in [1], in assay [2], in assay [3], in assay [13], in [4] and in [5] was > 100 µM in each case. In addition, the TGI in [6], in assay [7], in assay [8], in assay [9], in assay [10] and in [11] was > 100 µM in each case. In addition, the TGI in [12] is > 100 µM.
For the compound `CCOC(=O)C1=C(C)N(c2ccc(Cl)cc2)C2(O)C=CC(=O)C3=C(O)c4ccccc4C(=O)C312` (stereo unspecified), the TGI in assay [1] stood at 42.7 µM; in [2], 28 µM; in [3] it was 9.21 µM; in assay [14], 18.1 µM; in assay [13] it was 18.2 µM; in assay [4], 30.7 µM. Moreover, the TGI in assay [5] was determined as 5.84 µM; in assay [6], 16.2 µM; in [8], 12.4 µM; in [10], 9.01 µM; in [11], 25.4 µM; in assay [12], 11.7 µM.
Consider `CC[C@H](C)[C@H]1NC(=O)[C@@H](N)[C@@H](C)OC(=O)[C@H](Cc2ccc(OC)cc2)N(C)C(=O)[C@@H]2CCCN2C(=O)[C@H](CC(C)C)NC(=O)[C@@H](C)C(=O)[C@H](C(C)C)OC(=O)C[C@@H]1O` (H-T[X35]LP[NMeY](Me); ester 1-C), for which the TGI is > 100 µM in assay [1]; 45.9 µM in assay [2]; 66.2 µM in assay [14]; > 100 µM in assay [13]; > 100 µM in assay [4]; > 100 µM in [5]. The TGI was > 100 µM in assay [6]; > 100 µM in [7]; 32.3 µM in assay [8]; > 100 µM in assay [9]; 92.3 µM in assay [10]; > 100 µM in [11].
With `O=C1Nc2ccc(Br)cc2/C1=N/S(=O)(=O)O`, the TGI in assay [1] is 31.4 µM; in assay [2] it was > 100 µM; in [3] it was > 100 µM; in assay [13] it was > 100 µM; in assay [4], 79.3 µM; in [5] it was > 100 µM. The TGI in assay [6] was 22.4 µM; in assay [7], > 100 µM; in assay [8], > 100 µM; in assay [9] it was > 100 µM; in assay [10] it was 40.3 µM; in [11], > 100 µM. For the same compound, the TGI in assay [12] was > 100 µM.
Take `CC[C@H](C)[C@@H]([C@@H](CC(=O)N1CCC[C@H]1[C@H](OC)[C@@H](C)C(=O)NCCc1ccccc1)OC)N(C)C(=O)C(NC(=O)[C@H](C(C)C)N(C)C)C(C)C` (stereo partly specified): the TGI is > 10 µM in assay [1]; > 10 µM in assay [2]; > 10 µM in assay [3]; > 10 µM in assay [4]; 0.000544 µM in [5]; 0.00784 µM in [7]. Further, the TGI was 0.000855 µM in assay [8]; > 10 µM in assay [9]; > 10 µM in assay [10]; > 10 µM in assay [11]; 0.000267 µM in assay [12]. Further, the GI50 in assay [4] is 0.000592 µM.
`COC(=O)/C=C/CCC#Cc1ccccc1C#CCC/C=C/C(=O)OC`: the TGI in assay [1] is > 100 µM; in assay [2] it was > 100 µM; in [3], 10.1 µM; in assay [14], 30.9 µM; in assay [13], > 100 µM; in assay [4], > 100 µM. Moreover, the TGI is 28.2 µM in [5]; > 100 µM in assay [7]; > 100 µM in assay [8]; > 100 µM in [9]; > 100 µM in assay [10]; 42.9 µM in assay [11]. The same compound registered a TGI in assay [12] of 42.3 µM.
`CCOC(=O)CN1C(=O)NC(C)(c2ccccc2)C1=O` (stereo unspecified): the TGI in assay [1], in [2], in assay [3], in assay [14], in [4] and in assay [5] was > 100 µM throughout. For the same compound, the TGI in assay [6], in assay [8], in assay [9], in assay [10], in assay [11] and in assay [12] was > 100 µM throughout.
`Cc1cc(C)c(NS(=O)c2cccc(C(F)(F)F)c2)c(C)c1` (stereo unspecified): the TGI in [1], in assay [2], in assay [14], in assay [13], in assay [4] and in assay [5] was > 100 µM in each case. In addition, the TGI in assay [7], in assay [8], in assay [9], in assay [11] and in assay [12] was > 100 µM each time.
`Cc1ccc(N2C(=O)C3c4[nH]c5ccc(C)cc5c4C4CCC(C(C)(C)C)CC4C3C2=O)cc1` (stereo unspecified): the TGI is > 100 µM in [1]; 75.9 µM in assay [2]; 45.3 µM in assay [3]; 20.4 µM in [13]; 30.8 µM in assay [4]; 27.3 µM in [5]. Further, the TGI is 99.5 µM in assay [6]; 48.7 µM in assay [7]; > 100 µM in [8]; 90.6 µM in assay [9]; 30 µM in assay [10]; 39.7 µM in assay [11]. The TGI in [12] is > 100 µM.
Regarding `c1ccc2sc(SSSc3nc4ccccc4s3)nc2c1`, the TGI in [1], in assay [2], in assay [3], in [13], in assay [4] and in assay [6] was > 100 µM in each case. Besides, the TGI in assay [7], in [8], in [9], in [10], in assay [11] and in [12] was > 100 µM throughout.
Turning to `CC(C)(C)OC(=O)N(O)[C@@H]1CC[C@H](n2cnc3c(N)ncnc32)C1`, the TGI in assay [1], in assay [2], in [14], in assay [13], in assay [4] and in [5] was > 100 µM throughout. In addition, the TGI in [6], in [7], in assay [8], in [9], in [10] and in assay [11] was > 100 µM each time. For the same compound, the TGI in [12] was > 100 µM.
Regarding `Clc1cccc(-c2nc3cccc4c3n2Cc2ncccc2-4)c1`, the TGI in [1], in [2], in [3], in assay [14], in [13] and in assay [4] was > 100 µM in each case. In addition, the TGI in assay [5], in assay [7], in assay [8], in [9], in assay [10] and in assay [11] was > 100 µM in each case. The TGI in assay [12] is > 100 µM.
For the compound `O=c1[nH]c(=O)c2c([nH]1)[nH]c1ccc(Br)cc12`, the TGI in [1], in [2], in assay [3], in [14], in assay [4] and in [6] was > 100 µM each time. Further, the TGI in assay [7], in [8], in assay [10], in [11] and in assay [12] was > 100 µM throughout.
For `CC1=NN(c2ccc(S(=O)(=O)O)cc2)C2(C1)C(Cl)C(=O)N2c1nc2ccccc2s1` (stereo unspecified), the TGI in assay [1], in assay [2], in assay [3], in assay [13], in [4] and in [5] was > 100 µM each time. For the same compound, the TGI in assay [6], in assay [7], in [8], in [9], in assay [10] and in assay [11] was > 100 µM throughout. Besides, the TGI in [12] is > 100 µM.
For `C/C(=C\COP(=O)(O)OP(=O)(O)O)CCCCCCOCc1ccccc1`, the TGI in [1], in assay [2], in [3], in assay [14], in assay [13] and in assay [4] was > 100 µM throughout. Further, the TGI in assay [5], in [7], in assay [8], in assay [9], in assay [10] and in assay [11] was > 100 µM each time. Also, in assay [12], the TGI is > 100 µM.
Consider `C=C1N(S(=O)(=O)c2ccc(C)cc2)C(=O)OCC12CCCC2`, for which the TGI in [1], in assay [2], in assay [3], in assay [14], in assay [13] and in assay [4] was > 100 µM each time. The TGI in assay [5], in assay [7], in [8], in assay [9], in [10] and in assay [11] was > 100 µM throughout. The TGI in assay [12] is > 100 µM.
Turning to `CC(O)CNC(=O)Nc1c(C(F)(F)F)cc(-c2ccccc2)[nH]c1=O` (stereo unspecified), the TGI in assay [1], in [2], in assay [3], in assay [13], in assay [4] and in assay [5] was > 100 µM in each case. For the same compound, the TGI in assay [6], in assay [7], in [8], in assay [9], in [10] and in assay [11] was > 100 µM throughout. Moreover, in assay [12], the TGI was > 100 µM.
With `CC(C)[C@@H](C(=O)N(C)[C@H](C(=O)N1CCC[C@H]1C(=O)OCc1ccccc1)C(C)C)N(C)C(=O)C(Cc1ccccc1)N(C)C(=O)[C@H](NC(=O)OC(C)(C)C)C(C)C` (stereo partly specified) (Boc-[dV][ξNMeF][NMeV][NMeV]P-OBn), the TGI was > 31.6 µM in assay [1]; > 31.6 µM in [3]; > 31.6 µM in assay [14]; > 31.6 µM in assay [13]; > 31.6 µM in [4]; > 67.2 µM in [5]. Also, the TGI is > 31.6 µM in assay [6]; > 100 µM in [7]; > 100 µM in [8]; > 31.6 µM in [9]; > 31.6 µM in assay [10]; > 100 µM in assay [11]. Besides, the TGI in assay [12] was > 100 µM.
As for `COC(=O)C1(C(=O)OC)N=C(C)OC1c1ccccc1O` (stereo unspecified), the TGI in assay [1], in [2], in assay [3], in [13], in assay [4] and in assay [5] was > 100 µM in each case. The TGI in assay [6], in assay [7], in [8], in [9], in assay [10] and in assay [11] was > 100 µM in each case. The TGI in assay [12] is > 100 µM.
With `COc1ccc(Cc2cc(Cc3ccc(OC)cc3)cc(Cc3ccc(OC)cc3)c2)cc1`, the TGI in [1], in [2], in assay [14], in assay [13], in assay [4] and in assay [5] was > 100 µM each time. The TGI in assay [6], in assay [7], in assay [8], in assay [9] and in assay [10] was > 100 µM each time.
